Literature values in patent US20190015446A1, “MEDICINAL COMPOSITION FOR IMPROVING PROGNOSIS AFTER RESTART OF PATIENT'S OWN HEARTBEAT” (KEIO UNIVERSITY, priority 2015, published 2019).

What was measured:
[1] = system: rats after cardiopulmonary arrest resuscitation; conditions: inhalation from before to immediately after return of spontaneous circulation
healthy persons = conditions: hydrogen gas 49%

In the case of [HH] [hydrogen gas], the “Brain and heart functions and vital prognosis after cardiopulmonary arrest resuscitation” value [1] is listed as “can improve brain and heart functions and vital prognosis” and the “Adverse reaction on inhalation” value (healthy persons) is listed as “no adverse reaction”.
